Reference: patent publication US10377783B2, “Methods and compounds for enhancing contrast in magnetic resonance imaging (MRI)” (priority 2015, dated 2019)
Where two headings read alike, the source gives them in different places.

Key:
[1] = cited from earlier work; for Clearance (route) / Clearance (time; half-life): in vivo; for uptake by hepatocytes: during excretion
serum albumin = serum albumin (Homo sapiens, UniProt P02768); settings: cited from earlier work
[2] = Relaxivity measurements (T1 and T2 relaxation times, Bruker minispec mq60/mq20); assay type: physicochemical; settings: aqueous solution, 37° C.
Experimental: T1 and T2 relaxation times were measured at the STTARR Innovation Centre in Toronto, Canada using a Bruker minispec mq60, and at the Bruker Showroom in Milton, Canada using a Bruker minispec mq20. Measurements were carried out on a series of 6 aqueous dilutions between 0-5 mM.
The T1 and T2 relaxation times of the 8 soluble, pure complexes were measured in aqueous solution at 37° C., at both 20 and 60 MHz.

[3] = tested on: primary rat renal proximal tubule epithelial cells (RPTECs); assay: In vitro toxicity, MTT assay; assay type: cell-based; settings: for IC50: rat RPTECs, MTT, read-out: Inhibitory concentration IC50; for cytotoxicity: 10 h time point, compared with 4 h
Experimental: Gadodiamide (Selleckchem, Lot #02) was used as the reference compound. It is one of the 8 Gd(III)-based MRI agents approved for use in Canada (trade name: Omniscan™).
The test articles and reference compound were weighed and dissolved in the incubation medium to give the highest test concentration of 30 mM. The solution was filter sterilized and diluted to the remaining test concentrations of 10 mM, 3.3 mM, 1.1 mM, 0.36 mM, 0.12 mM and 0.04 mM.
Cryopreserved primary rat renal proximal tubule epithelial cells (RPTECs) (ScienCell Research Laboratories, Carlsbad, Calif.) were used for the study. The rat RPTECs were thawed completely at 37° C., and transferred to epithelial cell medium (ScienCell Research Laboratories, Carlsbad, Calif.) followed by plating in poly-L-lysine coated 96-well plates. The RPTECs were allowed to recover and grow in a cell culture incubator (37° C., humidified atmosphere of 5% carbon dioxide and 95% air) for 3 additional days with a medium change every alternate day.
Following 3 days of plating, the RPTECs were washed once with serum free epithelial cell medium (ScienCell Research Laboratories, Carlsbad, Calif.) followed by treatment with the test, reference or control articles for 2, 4, 10 or 24 h. All treatments were performed in triplicate.
Cellular viability and metabolic activity were assessed by using the 3-(4,5-dimethylthiazol-2-yl)-2,5-diphenyl tetrazolium bromide (MTT) uptake assay. A 10× stock of the MTT dye was prepared in phosphate buffered saline (PBS). An aliquot of dye was added 2 hrs before the intended time point to achieve a final 1× concentration, after which incubation (37° C., humidified atmosphere of 5% carbon dioxide and 95% air) continued until the desired time point. For the 2 hr time point, the aliquot of dye was added immediately after the test articles. Following incubation, all media was aspirated from the wells and the plates were allowed to dry. The resulting formazan crystals were dissolved in DMSO using an orbital shaker, and the absorbance at 570 nm was measured using a Victor ^3V multilabel plate reader (reference wavelength=650 nm).
The inhibitory concentration (IC50, the concentration resulting in 50% toxicity) was determined by plotting log concentration vs. relative viability, followed by non-linear regression of the curve using Graph Pad Prism 5.0.
An in vitro toxicity study was performed in order to evaluate the cytotoxic potential of several of the agents in primary rat renal proximal tubule epithelial cells (RPTECs), prior to performing in vivo studies. The Mn^II and Gd^III complexes of L1, L2 and L6 (complexes 1, 2, 5, and 7-9) were evaluated at seven concentrations (30 mM, 10 mM, 3.3 mM, 1.1 mM, 0.36 mM, 0.12 mM and 0.04 mM) after 2, 4, 10 and 24 hours of treatment in rat RPTECs. The MTT assay was used as an indicator of viability. The nephrotoxic potential of the test articles was compared to the toxicity observed in the presence of the approved agent Gadodiamide. The results are summarized in Table 4, where the inhibitory concentration (IC50, the concentration resulting in 50% toxicity) was determined by plotting log concentration vs. relative viability.

serum albumin, sequence (P02768 25-609): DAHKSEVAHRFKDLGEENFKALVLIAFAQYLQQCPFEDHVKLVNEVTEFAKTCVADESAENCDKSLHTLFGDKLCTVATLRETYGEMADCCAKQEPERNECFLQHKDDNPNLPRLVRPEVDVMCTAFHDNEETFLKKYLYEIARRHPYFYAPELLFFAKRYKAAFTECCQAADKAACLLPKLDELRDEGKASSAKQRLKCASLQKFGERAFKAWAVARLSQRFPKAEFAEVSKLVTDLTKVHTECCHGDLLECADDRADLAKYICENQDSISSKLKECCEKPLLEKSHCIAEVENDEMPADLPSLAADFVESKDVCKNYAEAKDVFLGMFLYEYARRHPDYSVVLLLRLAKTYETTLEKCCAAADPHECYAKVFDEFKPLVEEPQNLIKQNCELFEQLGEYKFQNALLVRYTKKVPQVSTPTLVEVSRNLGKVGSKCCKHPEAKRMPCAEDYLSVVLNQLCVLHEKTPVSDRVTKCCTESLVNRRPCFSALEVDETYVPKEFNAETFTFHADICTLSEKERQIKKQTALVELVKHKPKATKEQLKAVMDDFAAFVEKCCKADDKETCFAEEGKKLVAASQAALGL

Structure (SMILES): O=C([O-])CN1CCN(CC(=O)[O-])CCN([C@H](CO)[C@H](O)CO)CCN(CC(=O)[O-])CC1.[Gd+3] (racemic) [Gadavist, gadobutrol]
- Clearance (route) [1]: renal

Structure (SMILES): O=C([O-])CN(CCN(CC(=O)[O-])C[C@H](COP(=O)([O-])OC1CCC(c2ccccc2)(c2ccccc2)CC1)N(CC(=O)[O-])CC(=O)[O-])CC(=O)[O-].[Gd+3].[H+].[H+].[H+] [Ablavar or Vasovist, gadofosveset]
- binding to serum albumin (serum albumin): selectively binds to the blood protein serum albumin
- Clearance (route) [1]: renal/hepatic
- Clearance (time; half-life) [1]: 18.5 h

Structure (SMILES): CC1=Nc2ccccc2OCCOCCOc2ccccc2N=C(C)c2cccc1n2.O.O.[Cl-].[Cl-].[Mn+2] [Compound 5, [MnL6Cl2].2H2O]
- r1 relaxivity ([2]; 20 MHz): 7.22 s⁻¹ mM⁻¹
- r1 relaxivity ([2]; 60 MHz): 2.97 s⁻¹ mM⁻¹
- IC50 ([3]; 2 hr treatment): 1250 µM
- IC50 ([3]; 4 hr treatment): 670 µM
- IC50 ([3]; 10 hr treatment): 1390 µM
- cytotoxicity [3]: exhibited a slight reduction in toxicity
- IC50 ([3]; 24 hr treatment): 210 µM

Structure (SMILES): CC1=NCCNCCNCCN=C(C)c2cccc1n2.O.O.O.[Cl-].[Cl-].[Cl-].[Gd+3] [Compound 7, [GdL1Cl3].3H2O]
- r1 relaxivity ([2]; 20 MHz): 6.43 s⁻¹ mM⁻¹
- r1 relaxivity ([2]; 60 MHz): 5.58 s⁻¹ mM⁻¹
- IC50 ([3]; 2 hr treatment): 8150 µM
- IC50 ([3]; 4 hr treatment): 3370 µM
- IC50 ([3]; 10 hr treatment): 8530 µM
- cytotoxicity [3]: exhibited a slight reduction in toxicity
- IC50 ([3]; 24 hr treatment): 920 µM

Structure (SMILES): CNC[C@H](O)[C@@H](O)[C@H](O)[C@H](O)CO.O=C([O-])CN1CCN(CC(=O)[O-])CCN(CC(=O)O)CCN(CC(=O)[O-])CC1.[Gd+3] [Dotarem, gadoterate]
- Clearance (route) [1]: renal

Structure (SMILES): CCOc1ccc(CC(CN(CCN(CC(=O)[O-])CC(=O)[O-])CC(=O)[O-])N(CC(=O)[O-])CC(=O)[O-])cc1.[Gd+3].[Na+].[Na+] (stereo not shown) [Eovist or Primovist, gadoxetate]
- uptake by hepatocytes [1]: taken up by hepatocytes during excretion
- Clearance (route) [1]: renal/hepatic

Structure (SMILES): CNC(=O)CN(CCN(CCN(CC(=O)[O-])CC(=O)NC)CC(=O)[O-])CC(=O)[O-].[Gd+3] [Gadodiamide, gadodiamide, reference compound]
- nephrotoxicity ([3]; 2 and 4 h of treatment, 0.04-30 mM): did not show significant nephrotoxicity
- IC50 ([3]; 10 hr treatment): > 30000 µM
- cytotoxicity [3]: showed more toxicity than earlier time points
- nephrotoxic effects ([3]; 24 h of treatment): exhibiting the least nephrotoxic effects
- IC50 ([3]; 24 hr treatment): 31000 µM
- Clearance (route) [1]: renal
- Clearance (time; half-life) [1]: 1.30 h

Structure (SMILES): O=C([O-])CN(CCN(CC(=O)[O-])CC(=O)O)CCN(CC(=O)[O-])CC(=O)O.[Gd+3] [Magnevist, gadopentetate]
- Clearance (route) [1]: renal
- Clearance (time; half-life) [1]: 1.60 h

Structure (SMILES): CNC[C@H](O)[C@@H](O)[C@H](O)[C@H](O)CO.CNC[C@H](O)[C@@H](O)[C@H](O)[C@H](O)CO.O=C([O-])CN(CCN(CC(=O)[O-])CC(=O)O)CCN(CC(=O)O)C(COCc1ccccc1)C(=O)[O-].[Gd+3] (stereo not shown) [Multihance, gadobenate]
- uptake by hepatocytes [1]: taken up by hepatocytes during excretion
- Clearance (route) [1]: renal/hepatic
- Clearance (time; half-life) [1]: 1.2 to 2 h

Structure (SMILES): COCCNC(=O)CN(CCN(CCN(CC(=O)[O-])CC(=O)NCCOC)CC(=O)[O-])CC(=O)[O-].[Gd+3] [OptiMARK, gadoversetamide]
- Clearance (route) [1]: renal
- Clearance (time; half-life) [1]: 1.73 h

Structure (SMILES): CC(O)CN1CCN(CC(=O)[O-])CCN(CC(=O)[O-])CCN(CC(=O)[O-])CC1.[Gd+3] (stereo not shown) [Prohance, gadoteridol]
- Clearance (route) [1]: renal
- Clearance (time; half-life) [1]: 1.57 h
